System: PABPC1 PABC
Format: binding, human
Details: DMS-BM library, bait PABPC1 PABC, prey ATXN2, peptide TLNPNAKEFNPRSFSQ; E = wild type, row aa = residue at this position

| Sequence | DMS-derived PSSM value, position E8 |
| --- | --- |
| TLNPNAKEFNPRSFSQ E8P (TLNPNAKPFNPRSFSQ) | 0.2652 |
| TLNPNAKEFNPRSFSQ E8Q (TLNPNAKQFNPRSFSQ) | 0.04954 |
| TLNPNAKEFNPRSFSQ E8R (TLNPNAKRFNPRSFSQ) | 0 |
| TLNPNAKEFNPRSFSQ E8S (TLNPNAKSFNPRSFSQ) | 0.09805 |
| TLNPNAKEFNPRSFSQ E8T (TLNPNAKTFNPRSFSQ) | 0.09413 |
| TLNPNAKEFNPRSFSQ E8V (TLNPNAKVFNPRSFSQ) | 0.09834 |
| TLNPNAKEFNPRSFSQ E8W (TLNPNAKWFNPRSFSQ) | 0 |
| TLNPNAKEFNPRSFSQ E8Y (TLNPNAKYFNPRSFSQ) | 0.04993 |

Same assay, conditions: DMS-BM library, bait PABPC1 PABC, prey ATXN2, peptide TLNPNAKEFNPRSFSQ; F = wild type, row aa = residue at this position

| Sequence | DMS-derived PSSM value, position F9 | DMS-derived PSSM value, position F14 |
| --- | --- | --- |
| TLNPNAKEFNPRSFSQ F9A (TLNPNAKEANPRSFSQ) | 0 | – |
| TLNPNAKEFNPRSFSQ F9D (TLNPNAKEDNPRSFSQ) | 0.002637 | – |
| TLNPNAKEFNPRSFSQ F9E (TLNPNAKEENPRSFSQ) | 0.05407 | – |
| TLNPNAKEFNPRSFSQ F9G (TLNPNAKEGNPRSFSQ) | 0 | – |
| TLNPNAKEFNPRSFSQ F9H (TLNPNAKEHNPRSFSQ) | 0 | – |
| TLNPNAKEFNPRSFSQ F9I (TLNPNAKEINPRSFSQ) | 0 | – |
| TLNPNAKEFNPRSFSQ F9K (TLNPNAKEKNPRSFSQ) | 0 | – |
| TLNPNAKEFNPRSFSQ F9L (TLNPNAKELNPRSFSQ) | 0 | – |
| TLNPNAKEFNPRSFSQ F9M (TLNPNAKEMNPRSFSQ) | 0 | – |
| TLNPNAKEFNPRSFSQ F9N (TLNPNAKENNPRSFSQ) | 0 | – |
| TLNPNAKEFNPRSFSQ F9P (TLNPNAKEPNPRSFSQ) | 0 | – |
| TLNPNAKEFNPRSFSQ F9Q (TLNPNAKEQNPRSFSQ) | 0 | – |
| TLNPNAKEFNPRSFSQ F9R (TLNPNAKERNPRSFSQ) | 0 | – |
| TLNPNAKEFNPRSFSQ F9S (TLNPNAKESNPRSFSQ) | 0 | – |
| TLNPNAKEFNPRSFSQ F9T (TLNPNAKETNPRSFSQ) | 0.05894 | – |
| TLNPNAKEFNPRSFSQ F9V (TLNPNAKEVNPRSFSQ) | 0.0008789 | – |
| TLNPNAKEFNPRSFSQ F9W (TLNPNAKEWNPRSFSQ) | 0.6528 | – |
| TLNPNAKEFNPRSFSQ F9Y (TLNPNAKEYNPRSFSQ) | 0.02013 | – |

| Sequence | DMS-derived PSSM value, position F9 | DMS-derived PSSM value, position F14 |
| --- | --- | --- |
| TLNPNAKEFNPRSFSQ F14A (TLNPNAKEFNPRSASQ) | – | 0.01754 |
| TLNPNAKEFNPRSFSQ F14D (TLNPNAKEFNPRSDSQ) | – | 0.0175 |
| TLNPNAKEFNPRSFSQ F14E (TLNPNAKEFNPRSESQ) | – | 0.02018 |
| TLNPNAKEFNPRSFSQ F14G (TLNPNAKEFNPRSGSQ) | – | 0.005512 |
| TLNPNAKEFNPRSFSQ F14H (TLNPNAKEFNPRSHSQ) | – | 0.09586 |
| TLNPNAKEFNPRSFSQ F14I (TLNPNAKEFNPRSISQ) | – | 0.0189 |
| TLNPNAKEFNPRSFSQ F14K (TLNPNAKEFNPRSKSQ) | – | 0.003921 |
| TLNPNAKEFNPRSFSQ F14L (TLNPNAKEFNPRSLSQ) | – | 0.08923 |
| TLNPNAKEFNPRSFSQ F14M (TLNPNAKEFNPRSMSQ) | – | 0.2558 |
| TLNPNAKEFNPRSFSQ F14N (TLNPNAKEFNPRSNSQ) | – | 0.0664 |
| TLNPNAKEFNPRSFSQ F14P (TLNPNAKEFNPRSPSQ) | – | 0.06984 |
| TLNPNAKEFNPRSFSQ F14Q (TLNPNAKEFNPRSQSQ) | – | 0.1174 |
| TLNPNAKEFNPRSFSQ F14R (TLNPNAKEFNPRSRSQ) | – | 0.0002828 |
| TLNPNAKEFNPRSFSQ F14S (TLNPNAKEFNPRSSSQ) | – | 0.004424 |
| TLNPNAKEFNPRSFSQ F14T (TLNPNAKEFNPRSTSQ) | – | 0.006633 |
| TLNPNAKEFNPRSFSQ F14V (TLNPNAKEFNPRSVSQ) | – | 0.06499 |
| TLNPNAKEFNPRSFSQ F14W (TLNPNAKEFNPRSWSQ) | – | 0.01201 |
| TLNPNAKEFNPRSFSQ F14Y (TLNPNAKEFNPRSYSQ) | – | 0.07249 |

Same assay, conditions: DMS-BM library, bait PABPC1 PABC, prey ATXN2, peptide TLNPNAKEFNPRSFSQ; K = wild type, row aa = residue at this position

| Sequence | DMS-derived PSSM value, position K7 |
| --- | --- |
| TLNPNAKEFNPRSFSQ K7A (TLNPNAAEFNPRSFSQ) | 0.2382 |
| TLNPNAKEFNPRSFSQ K7D (TLNPNADEFNPRSFSQ) | 0.01281 |
| TLNPNAKEFNPRSFSQ K7E (TLNPNAEEFNPRSFSQ) | 0.001823 |
| TLNPNAKEFNPRSFSQ K7F (TLNPNAFEFNPRSFSQ) | 0.058 |
| TLNPNAKEFNPRSFSQ K7G (TLNPNAGEFNPRSFSQ) | 0.01102 |
| TLNPNAKEFNPRSFSQ K7H (TLNPNAHEFNPRSFSQ) | 0.02911 |
| TLNPNAKEFNPRSFSQ K7I (TLNPNAIEFNPRSFSQ) | 0.003703 |
| TLNPNAKEFNPRSFSQ K7L (TLNPNALEFNPRSFSQ) | 0.0009142 |
| TLNPNAKEFNPRSFSQ K7M (TLNPNAMEFNPRSFSQ) | 0.0004181 |
| TLNPNAKEFNPRSFSQ K7N (TLNPNANEFNPRSFSQ) | 0.08014 |
| TLNPNAKEFNPRSFSQ K7P (TLNPNAPEFNPRSFSQ) | 0.006619 |
| TLNPNAKEFNPRSFSQ K7Q (TLNPNAQEFNPRSFSQ) | 0.008943 |
| TLNPNAKEFNPRSFSQ K7R (TLNPNAREFNPRSFSQ) | 0.00234 |
| TLNPNAKEFNPRSFSQ K7S (TLNPNASEFNPRSFSQ) | 0.01353 |
| TLNPNAKEFNPRSFSQ K7T (TLNPNATEFNPRSFSQ) | 0.006845 |
| TLNPNAKEFNPRSFSQ K7V (TLNPNAVEFNPRSFSQ) | 0.007815 |
| TLNPNAKEFNPRSFSQ K7W (TLNPNAWEFNPRSFSQ) | 0.03322 |
| TLNPNAKEFNPRSFSQ K7Y (TLNPNAYEFNPRSFSQ) | 0.472 |

Same assay, conditions: DMS-BM library, bait PABPC1 PABC, prey ATXN2, peptide TLNPNAKEFNPRSFSQ; L = wild type, row aa = residue at this position

| Sequence | DMS-derived PSSM value, position L2 |
| --- | --- |
| TLNPNAKEFNPRSFSQ L2A (TANPNAKEFNPRSFSQ) | 0 |
| TLNPNAKEFNPRSFSQ L2D (TDNPNAKEFNPRSFSQ) | 0 |
| TLNPNAKEFNPRSFSQ L2E (TENPNAKEFNPRSFSQ) | 0.08907 |
| TLNPNAKEFNPRSFSQ L2F (TFNPNAKEFNPRSFSQ) | 0.1032 |
| TLNPNAKEFNPRSFSQ L2G (TGNPNAKEFNPRSFSQ) | 0 |
| TLNPNAKEFNPRSFSQ L2H (THNPNAKEFNPRSFSQ) | 0 |
| TLNPNAKEFNPRSFSQ L2I (TINPNAKEFNPRSFSQ) | 0.001607 |
| TLNPNAKEFNPRSFSQ L2K (TKNPNAKEFNPRSFSQ) | 0.001564 |
| TLNPNAKEFNPRSFSQ L2M (TMNPNAKEFNPRSFSQ) | 0.1261 |
| TLNPNAKEFNPRSFSQ L2N (TNNPNAKEFNPRSFSQ) | 0 |
| TLNPNAKEFNPRSFSQ L2P (TPNPNAKEFNPRSFSQ) | 0.03756 |
| TLNPNAKEFNPRSFSQ L2Q (TQNPNAKEFNPRSFSQ) | 0 |
| TLNPNAKEFNPRSFSQ L2R (TRNPNAKEFNPRSFSQ) | 0 |
| TLNPNAKEFNPRSFSQ L2S (TSNPNAKEFNPRSFSQ) | 0 |
| TLNPNAKEFNPRSFSQ L2T (TTNPNAKEFNPRSFSQ) | 0 |
| TLNPNAKEFNPRSFSQ L2V (TVNPNAKEFNPRSFSQ) | 0 |
| TLNPNAKEFNPRSFSQ L2W (TWNPNAKEFNPRSFSQ) | 0.1455 |
| TLNPNAKEFNPRSFSQ L2Y (TYNPNAKEFNPRSFSQ) | 0.1104 |

Same assay, conditions: DMS-BM library, bait PABPC1 PABC, prey ATXN2, peptide TLNPNAKEFNPRSFSQ; N = wild type, row aa = residue at this position

| Sequence | DMS-derived PSSM value, position N3 |
| --- | --- |
| TLNPNAKEFNPRSFSQ N3A (TLAPNAKEFNPRSFSQ) | 0 |
| TLNPNAKEFNPRSFSQ N3D (TLDPNAKEFNPRSFSQ) | 0.1652 |
| TLNPNAKEFNPRSFSQ N3E (TLEPNAKEFNPRSFSQ) | 0 |
| TLNPNAKEFNPRSFSQ N3F (TLFPNAKEFNPRSFSQ) | 0 |
| TLNPNAKEFNPRSFSQ N3G (TLGPNAKEFNPRSFSQ) | 0 |
| TLNPNAKEFNPRSFSQ N3H (TLHPNAKEFNPRSFSQ) | 0 |
| TLNPNAKEFNPRSFSQ N3I (TLIPNAKEFNPRSFSQ) | 0 |
| TLNPNAKEFNPRSFSQ N3K (TLKPNAKEFNPRSFSQ) | 0 |
| TLNPNAKEFNPRSFSQ N3L (TLLPNAKEFNPRSFSQ) | 0 |
| TLNPNAKEFNPRSFSQ N3M (TLMPNAKEFNPRSFSQ) | 0 |
| TLNPNAKEFNPRSFSQ N3P (TLPPNAKEFNPRSFSQ) | 0 |
| TLNPNAKEFNPRSFSQ N3Q (TLQPNAKEFNPRSFSQ) | 0.055 |
| TLNPNAKEFNPRSFSQ N3R (TLRPNAKEFNPRSFSQ) | 0.02401 |
| TLNPNAKEFNPRSFSQ N3S (TLSPNAKEFNPRSFSQ) | 0.4554 |
| TLNPNAKEFNPRSFSQ N3T (TLTPNAKEFNPRSFSQ) | 0.01993 |
| TLNPNAKEFNPRSFSQ N3V (TLVPNAKEFNPRSFSQ) | 0 |
| TLNPNAKEFNPRSFSQ N3W (TLWPNAKEFNPRSFSQ) | 0 |
